{"source": "patent US12324811B2", "about": "“Intranasal formulation” (CIPLA LIMITED, priority 2018, dated 2025)", "origin": "cited, not measured here", "key": {"[1]": {"conditions": "active metabolite"}, "[2]": {"conditions": "oral administration"}, "[3]": {"conditions": "intranasally administered, children and adults"}}}
{"compound": "OCc1ncc2n1-c1ccc(Cl)cc1C(c1ccccc1F)=NC2", "note": "[alpha1-hydroxymidazolam]", "values": [{"measurement": "contribution to biological activity of midazolam", "setting": "[1]", "value": 10, "unit": "%"}]}
{"compound": "Midazolam", "values": [{"measurement": "drug reaching the bloodstream", "setting": "[2]", "value": 50, "unit": "%"}, {"measurement": "onset of action", "setting": "[3]", "value": "about 10 minutes"}]}
